{"source": "PubChem BioAssay (NCI)", "experiment_in_all_cases": "growth of human tumour cells (NCI), 48 h", "key": {"[1]": {"tested_on": "SNB-75 CNS"}, "[2]": {"tested_on": "HCT-15 colon"}, "[3]": {"tested_on": "UO-31 renal"}, "[4]": {"tested_on": "OVCAR-8 ovarian"}, "[5]": {"tested_on": "HOP-92 NSCLC"}, "[6]": {"tested_on": "A549 NSCLC"}, "[7]": {"tested_on": "SF-295 CNS"}, "[8]": {"tested_on": "HS 578T breast"}, "[9]": {"tested_on": "SK-MEL-2 melanoma"}, "[10]": {"tested_on": "SR leukemia"}, "[11]": {"tested_on": "786-0 renal"}, "[12]": {"tested_on": "IGROV1 ovarian"}, "[13]": {"tested_on": "HL-60(TB) leukemia"}, "[14]": {"tested_on": "U251 CNS"}, "[15]": {"tested_on": "MOLT-4 leukemia"}, "[16]": {"tested_on": "SF-539 CNS"}, "[17]": {"tested_on": "NCI-H460 lung"}, "[18]": {"tested_on": "DU-145 prostate"}, "[19]": {"tested_on": "RPMI-8226 leukemia"}, "[20]": {"tested_on": "CAKI-1 renal"}, "[21]": {"tested_on": "M14 melanoma"}, "[22]": {"tested_on": "EKVX NSCLC"}, "[23]": {"tested_on": "UACC-257 melanoma"}, "[24]": {"tested_on": "T-47D breast"}, "[25]": {"tested_on": "SF-268 CNS"}, "[26]": {"tested_on": "HCT-116 colon"}, "[27]": {"tested_on": "SK-OV-3 ovarian"}, "[28]": {"tested_on": "TK-10 renal"}, "[29]": {"tested_on": "K-562 leukemia"}, "[30]": {"tested_on": "OVCAR-3 ovarian"}, "[31]": {"tested_on": "NCI-H522 lung"}, "[32]": {"tested_on": "LOX IMVI melanoma"}, "[33]": {"tested_on": "HT29 colon"}, "[34]": {"tested_on": "BT-549 breast"}, "[35]": {"tested_on": "SN12C renal"}, "[36]": {"tested_on": "UACC-62 melanoma"}, "[37]": {"tested_on": "A498 renal"}, "[38]": {"tested_on": "HOP-62 NSCLC"}, "[39]": {"tested_on": "ACHN renal"}, "[40]": {"tested_on": "KM12 colon"}, "[41]": {"tested_on": "COLO 205 colon"}, "[42]": {"tested_on": "SK-MEL-5 melanoma"}, "[43]": {"tested_on": "MCF7 breast"}, "[44]": {"tested_on": "SW-620 colon"}, "[45]": {"tested_on": "SK-MEL-28 melanoma"}, "[46]": {"tested_on": "CCRF-CEM leukemia"}, "[47]": {"tested_on": "SNB-19 CNS"}, "[48]": {"tested_on": "NCI-H226 lung"}, "[49]": {"tested_on": "MDA-MB-435"}, "[50]": {"tested_on": "MDA-MB-231 breast"}, "[51]": {"tested_on": "PC-3 prostate"}, "[52]": {"tested_on": "OVCAR-4 ovarian"}, "[53]": {"tested_on": "RXF 393 renal"}}, "note": "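Step 1: Grow cells in 96-well plates. Step 2: Expose to compound for 48 hours at 5 concentrations. Step 3: Interpolate endpoints linearly; if unreached, use highest concentration. GI50 is the concentration that inhibits growth by half. TGI: total growth inhibition.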"}
{"smiles": "O=C(NCc1ccc(Cl)cc1Cl)c1ccc(NC2=C(Cl)C(=O)N(Cc3ccccc3)C2=O)cc1", "values": [{"measurement": "GI50", "setting": "[1]", "value": 17.8, "unit": "µM"}, {"measurement": "TGI", "setting": "[1]", "value": 34.2, "unit": "µM"}, {"measurement": "GI50", "setting": "[2]", "value": 32.4, "unit": "µM"}, {"measurement": "TGI", "setting": "[2]", "value": "> 100", "unit": "µM"}, {"measurement": "GI50", "setting": "[3]", "value": 3.41, "unit": "µM"}, {"measurement": "TGI", "setting": "[3]", "value": "> 100", "unit": "µM"}, {"measurement": "GI50", "setting": "[4]", "value": 12, "unit": "µM"}, {"measurement": "TGI", "setting": "[4]", "value": 26.5, "unit": "µM"}, {"measurement": "GI50", "setting": "[5]", "value": 10.6, "unit": "µM"}, {"measurement": "TGI", "setting": "[5]", "value": 27.8, "unit": "µM"}, {"measurement": "GI50", "setting": "[6]", "value": 36, "unit": "µM"}, {"measurement": "TGI", "setting": "[6]", "value": "> 100", "unit": "µM"}, {"measurement": "GI50", "setting": "[7]", "value": 32.8, "unit": "µM"}, {"measurement": "TGI", "setting": "[7]", "value": "> 100", "unit": "µM"}, {"measurement": "GI50", "setting": "[8]", "value": 23.4, "unit": "µM"}, {"measurement": "TGI", "setting": "[8]", "value": 52.7, "unit": "µM"}, {"measurement": "GI50", "setting": "[9]", "value": 78.8, "unit": "µM"}, {"measurement": "TGI", "setting": "[9]", "value": "> 100", "unit": "µM"}, {"measurement": "GI50", "setting": "[10]", "value": 0.734, "unit": "µM"}, {"measurement": "TGI", "setting": "[10]", "value": 2.55, "unit": "µM"}, {"measurement": "GI50", "setting": "[11]", "value": 30.1, "unit": "µM"}, {"measurement": "TGI", "setting": "[11]", "value": "> 100", "unit": "µM"}, {"measurement": "GI50", "setting": "[12]", "value": 15.8, "unit": "µM"}, {"measurement": "TGI", "setting": "[12]", "value": "> 100", "unit": "µM"}, {"measurement": "GI50", "setting": "[13]", "value": 14.8, "unit": "µM"}, {"measurement": "TGI", "setting": "[13]", "value": 60.8, "unit": "µM"}, {"measurement": "GI50", "setting": "[14]", "value": 15.7, "unit": "µM"}, {"measurement": "TGI", "setting": "[14]", "value": 34.2, "unit": "µM"}, {"measurement": "GI50", "setting": "[15]", "value": 7.17, "unit": "µM"}, {"measurement": "TGI", "setting": "[15]", "value": 23.9, "unit": "µM"}, {"measurement": "GI50", "setting": "[16]", "value": 21.3, "unit": "µM"}, {"measurement": "TGI", "setting": "[16]", "value": 39.1, "unit": "µM"}, {"measurement": "GI50", "setting": "[17]", "value": 17.8, "unit": "µM"}, {"measurement": "TGI", "setting": "[17]", "value": 47, "unit": "µM"}, {"measurement": "GI50", "setting": "[18]", "value": 39.9, "unit": "µM"}, {"measurement": "TGI", "setting": "[18]", "value": "> 100", "unit": "µM"}, {"measurement": "GI50", "setting": "[19]", "value": 4.45, "unit": "µM"}, {"measurement": "TGI", "setting": "[19]", "value": 44.5, "unit": "µM"}, {"measurement": "GI50", "setting": "[20]", "value": 18.2, "unit": "µM"}, {"measurement": "TGI", "setting": "[20]", "value": 52.4, "unit": "µM"}, {"measurement": "GI50", "setting": "[21]", "value": 58.7, "unit": "µM"}, {"measurement": "TGI", "setting": "[21]", "value": "> 100", "unit": "µM"}, {"measurement": "GI50", "setting": "[22]", "value": 36.4, "unit": "µM"}, {"measurement": "TGI", "setting": "[22]", "value": "> 100", "unit": "µM"}, {"measurement": "GI50", "setting": "[23]", "value": 61, "unit": "µM"}, {"measurement": "TGI", "setting": "[23]", "value": "> 100", "unit": "µM"}, {"measurement": "GI50", "setting": "[24]", "value": 51.3, "unit": "µM"}, {"measurement": "TGI", "setting": "[24]", "value": "> 100", "unit": "µM"}, {"measurement": "GI50", "setting": "[25]", "value": 18.9, "unit": "µM"}, {"measurement": "TGI", "setting": "[25]", "value": 49.1, "unit": "µM"}, {"measurement": "GI50", "setting": "[26]", "value": 53.5, "unit": "µM"}, {"measurement": "TGI", "setting": "[26]", "value": "> 100", "unit": "µM"}, {"measurement": "GI50", "setting": "[27]", "value": 57.5, "unit": "µM"}, {"measurement": "TGI", "setting": "[27]", "value": "> 100", "unit": "µM"}, {"measurement": "GI50", "setting": "[28]", "value": 28.7, "unit": "µM"}, {"measurement": "TGI", "setting": "[28]", "value": 91.4, "unit": "µM"}, {"measurement": "GI50", "setting": "[29]", "value": 9.98, "unit": "µM"}, {"measurement": "TGI", "setting": "[29]", "value": 30.9, "unit": "µM"}, {"measurement": "GI50", "setting": "[30]", "value": 31.9, "unit": "µM"}, {"measurement": "TGI", "setting": "[30]", "value": "> 100", "unit": "µM"}, {"measurement": "GI50", "setting": "[31]", "value": 24.6, "unit": "µM"}, {"measurement": "TGI", "setting": "[31]", "value": "> 100", "unit": "µM"}, {"measurement": "GI50", "setting": "[32]", "value": 7.02, "unit": "µM"}, {"measurement": "TGI", "setting": "[32]", "value": "> 100", "unit": "µM"}, {"measurement": "GI50", "setting": "[33]", "value": 54.3, "unit": "µM"}, {"measurement": "TGI", "setting": "[33]", "value": "> 100", "unit": "µM"}, {"measurement": "GI50", "setting": "[34]", "value": 20.3, "unit": "µM"}, {"measurement": "TGI", "setting": "[34]", "value": 42, "unit": "µM"}, {"measurement": "GI50", "setting": "[35]", "value": 26.7, "unit": "µM"}, {"measurement": "TGI", "setting": "[35]", "value": 75.5, "unit": "µM"}, {"measurement": "GI50", "setting": "[36]", "value": 18.4, "unit": "µM"}, {"measurement": "TGI", "setting": "[36]", "value": 39.8, "unit": "µM"}, {"measurement": "GI50", "setting": "[37]", "value": 28.1, "unit": "µM"}, {"measurement": "TGI", "setting": "[37]", "value": 56.8, "unit": "µM"}, {"measurement": "GI50", "setting": "[38]", "value": 36.3, "unit": "µM"}, {"measurement": "TGI", "setting": "[38]", "value": "> 100", "unit": "µM"}, {"measurement": "GI50", "setting": "[39]", "value": 20.8, "unit": "µM"}, {"measurement": "TGI", "setting": "[39]", "value": 48.1, "unit": "µM"}, {"measurement": "GI50", "setting": "[40]", "value": 38.4, "unit": "µM"}, {"measurement": "TGI", "setting": "[40]", "value": "> 100", "unit": "µM"}, {"measurement": "GI50", "setting": "[41]", "value": 23.3, "unit": "µM"}, {"measurement": "TGI", "setting": "[41]", "value": 66.5, "unit": "µM"}, {"measurement": "GI50", "setting": "[42]", "value": 24, "unit": "µM"}, {"measurement": "TGI", "setting": "[42]", "value": 66.7, "unit": "µM"}, {"measurement": "GI50", "setting": "[43]", "value": 11.9, "unit": "µM"}, {"measurement": "TGI", "setting": "[43]", "value": 48.9, "unit": "µM"}, {"measurement": "GI50", "setting": "[44]", "value": 26.9, "unit": "µM"}, {"measurement": "TGI", "setting": "[44]", "value": "> 100", "unit": "µM"}, {"measurement": "GI50", "setting": "[45]", "value": 41.6, "unit": "µM"}, {"measurement": "TGI", "setting": "[45]", "value": "> 100", "unit": "µM"}, {"measurement": "GI50", "setting": "[46]", "value": 1.41, "unit": "µM"}, {"measurement": "TGI", "setting": "[46]", "value": 7.65, "unit": "µM"}, {"measurement": "GI50", "setting": "[47]", "value": 44.1, "unit": "µM"}, {"measurement": "TGI", "setting": "[47]", "value": "> 100", "unit": "µM"}, {"measurement": "GI50", "setting": "[48]", "value": 26.8, "unit": "µM"}, {"measurement": "TGI", "setting": "[48]", "value": "> 100", "unit": "µM"}, {"measurement": "GI50", "setting": "[49]", "value": 33.4, "unit": "µM"}, {"measurement": "TGI", "setting": "[49]", "value": "> 100", "unit": "µM"}, {"measurement": "GI50", "setting": "[50]", "value": 21.1, "unit": "µM"}, {"measurement": "TGI", "setting": "[50]", "value": 55.9, "unit": "µM"}, {"measurement": "GI50", "setting": "[51]", "value": 14.3, "unit": "µM"}, {"measurement": "TGI", "setting": "[51]", "value": 31.9, "unit": "µM"}, {"measurement": "GI50", "setting": "[52]", "value": 18.5, "unit": "µM"}, {"measurement": "TGI", "setting": "[52]", "value": 40.3, "unit": "µM"}, {"measurement": "GI50", "setting": "[53]", "value": 18.7, "unit": "µM"}, {"measurement": "TGI", "setting": "[53]", "value": 52.6, "unit": "µM"}]}
